Test results published in patent US8129366B2, “VLA-4 inhibitory drug” (Daiichi Sankyo Company, Limited, priority 2005, dated 2012).

Target: T1, hα4 and β1 integrins (Homo sapiens, UniProt P05556+P13612)
T1 construct: expressed in transfected cells; host or cells: CHO cells
Assay: In vitro inhibition of binding between CHO cells expressing hα4 and β1 integrins and Eu3+-hVCAM-1 D1D7-IgG
Conditions: for Ki: CHO cells expressing hα4 and β1 integrins, Eu3+-hVCAM-1 D1D7-IgG ligand, without HSA; for IC50: in the presence of 3% human serum albumin (HSA final concentration 3%)
How it was run: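 Bound europium-labelled VCAM-1 D1D7-IgG on α4β1-expressing CHO cells was measured by time-resolved fluorescence after washing at 4 °C. Ligand (2 nM working dilution) and test compound, with or without 3% final HSA, were co-incubated for 1 h at room temperature in Mn²⁺-containing HEPES buffer, pH 7.5. IC50 came from % binding inhibition; Ki was calculated from ligand concentration and Scatchard Kd.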

T1 sequence (P13612 34-1032): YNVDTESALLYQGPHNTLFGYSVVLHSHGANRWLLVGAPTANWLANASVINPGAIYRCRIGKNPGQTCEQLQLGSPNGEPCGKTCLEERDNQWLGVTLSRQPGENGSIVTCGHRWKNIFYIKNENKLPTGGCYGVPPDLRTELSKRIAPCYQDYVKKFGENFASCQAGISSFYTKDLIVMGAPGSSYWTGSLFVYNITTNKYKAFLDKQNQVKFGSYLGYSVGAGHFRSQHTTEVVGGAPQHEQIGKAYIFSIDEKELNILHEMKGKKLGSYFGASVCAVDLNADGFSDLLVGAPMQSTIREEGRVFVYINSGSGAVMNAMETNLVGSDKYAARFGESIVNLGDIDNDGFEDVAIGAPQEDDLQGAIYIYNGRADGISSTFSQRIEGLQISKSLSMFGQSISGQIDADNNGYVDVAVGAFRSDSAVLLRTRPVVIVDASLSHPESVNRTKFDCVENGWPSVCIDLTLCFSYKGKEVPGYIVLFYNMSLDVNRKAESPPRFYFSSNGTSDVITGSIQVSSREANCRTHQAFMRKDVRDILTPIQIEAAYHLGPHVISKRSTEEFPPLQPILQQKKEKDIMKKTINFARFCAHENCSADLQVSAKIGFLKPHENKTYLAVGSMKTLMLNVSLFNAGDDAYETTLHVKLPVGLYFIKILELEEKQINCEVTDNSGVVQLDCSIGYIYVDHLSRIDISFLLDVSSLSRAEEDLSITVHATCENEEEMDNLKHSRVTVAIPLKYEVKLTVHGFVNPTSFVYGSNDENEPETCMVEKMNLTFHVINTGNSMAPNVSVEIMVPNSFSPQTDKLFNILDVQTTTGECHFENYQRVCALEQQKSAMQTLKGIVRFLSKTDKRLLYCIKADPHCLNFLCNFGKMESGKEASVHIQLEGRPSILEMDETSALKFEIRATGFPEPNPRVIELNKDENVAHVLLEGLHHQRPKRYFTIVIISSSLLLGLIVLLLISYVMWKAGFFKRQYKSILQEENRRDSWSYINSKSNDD
T1 sequence (P05556 21-798): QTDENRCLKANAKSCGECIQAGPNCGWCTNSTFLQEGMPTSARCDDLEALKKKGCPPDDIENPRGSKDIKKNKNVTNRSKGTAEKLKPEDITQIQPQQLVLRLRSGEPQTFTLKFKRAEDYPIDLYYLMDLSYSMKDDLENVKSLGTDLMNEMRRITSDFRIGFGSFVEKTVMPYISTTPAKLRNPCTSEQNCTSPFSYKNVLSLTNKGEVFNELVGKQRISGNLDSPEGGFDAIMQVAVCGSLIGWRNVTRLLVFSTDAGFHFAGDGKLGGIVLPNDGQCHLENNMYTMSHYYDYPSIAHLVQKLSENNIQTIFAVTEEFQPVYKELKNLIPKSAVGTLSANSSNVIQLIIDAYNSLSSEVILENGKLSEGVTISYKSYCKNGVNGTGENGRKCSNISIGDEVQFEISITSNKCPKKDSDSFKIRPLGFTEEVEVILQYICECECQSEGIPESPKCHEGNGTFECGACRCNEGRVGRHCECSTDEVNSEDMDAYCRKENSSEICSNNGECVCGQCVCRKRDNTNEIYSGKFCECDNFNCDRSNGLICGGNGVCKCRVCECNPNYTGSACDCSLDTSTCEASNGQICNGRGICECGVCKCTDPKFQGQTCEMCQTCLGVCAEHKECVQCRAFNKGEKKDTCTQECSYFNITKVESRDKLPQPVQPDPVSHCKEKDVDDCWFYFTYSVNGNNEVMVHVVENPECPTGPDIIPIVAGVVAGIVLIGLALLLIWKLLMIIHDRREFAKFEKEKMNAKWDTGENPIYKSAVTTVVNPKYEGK

Ki	IC50	SMILES
3.1 nM	8.2 nM	Cn1cc(C(=O)Nc2cc(Cl)c(CC(=O)N3C[C@@H](N4CCC(S(C)(=O)=O)CC4)C[C@H]3CO[C@H]3CC[C@H](C(=O)O)CC3)cc2Cl)c2ccccc21 [Example 108, Trans-4-[1-[[2,5-dichloro-4-[(1-methyl-1H-indol-3-ylcarbonyl)amino]phenyl]acetyl]-(4S)-(4-methanesulfonylpiperidin-1-yl)-(2S)-pyrrolidinylmethoxy]cyclohexanecarboxylic acid]
3.6 nM	5.2 nM	CN(C)C1CCN([C@H]2C[C@@H](CO[C@H]3CC[C@H](C(=O)O)CC3)N(C(=O)Cc3cc(Cl)c(NC(=O)c4cn(C)c5ccccc45)cc3F)C2)CC1 [Example 109, Trans-4-[1-[[5-chloro-2-fluoro-4-[(1-methyl-1H-indol-3-ylcarbonyl)amino]phenyl]acetyl]-(4S)-[4-(N,N-dimethylamino)piperidin-1-yl]-(2S)-pyrrolidinylmethoxy]cyclohexanecarboxylic acid]
0.29 nM	1.2 nM	CN1CCN([C@H]2C[C@@H](CO[C@H]3CC[C@H](C(=O)O)CC3)N(C(=O)Cc3cc(Cl)c(NC(=O)c4csc5ccccc45)cc3F)C2)CC1 [Example 111, Trans-4-[1-[[4-[(benzo[b]thiophen-3-ylcarbonyl)amino]-5-chloro-2-fluorophenyl]acetyl]-(4S)-(4-methylpiperazin-1-yl)-(2S)-pyrrolidinylmethoxy]cyclohexanecarboxylic acid]
4.2 nM	9.5 nM	CN1CCN([C@H]2C[C@@H](CO[C@H]3CC[C@H](C(=O)O)CC3)N(C(=O)Cc3cc(Cl)c(NC(=O)c4cn(C)c5ccccc45)cc3Cl)C2)CC1 [Example 112, Trans-4-[1-[[2,5-dichloro-4-[(1-methyl-1H-indol-3-ylcarbonyl)amino]phenyl]acetyl]-(4S)-(4-methylpiperazin-1-yl)-(2S)-pyrrolidinylmethoxy]cyclohexanecarboxylic acid]
3 nM	8.9 nM	CC(C)(C)N1CCN([C@H]2C[C@@H](CO[C@H]3CC[C@H](C(=O)O)CC3)N(C(=O)Cc3cc(Cl)c(NC(=O)c4coc5ccccc45)cc3Cl)C2)CC1 [Example 114, Trans-4-[1-[[4-[(benzo[b]furan-3-ylcarbonyl)amino]-2,5-dichlorophenyl]acetyl]-(4S)-[4-(tert-butyl)piperazin-1-yl]-(2S)-pyrrolidinylmethoxy]cyclohexanecarboxylic acid]
4.2 nM	13 nM	Cn1cc(C(=O)Nc2cc(Cl)c(CC(=O)N3C[C@@H](N4CCN(CC5CC5)CC4)C[C@H]3CO[C@H]3CC[C@H](C(=O)O)CC3)cc2Cl)c2ccccc21 [Example 115, Trans-4-[1-[[2,5-dichloro-4-[(1-methyl-1H-indol-3-ylcarbonyl)amino]phenyl]acetyl]-(4S)-[(4-cyclopropylmethyl)piperazin-1-yl]-(2S)-pyrrolidinylmethoxy]cyclohexanecarboxylic acid]
0.6 nM	21 nM	O=C(Nc1cc(F)c(CC(=O)N2C[C@@H](N3CCN(Cc4ccccc4)CC3)C[C@H]2CO[C@H]2CC[C@H](C(=O)O)CC2)cc1Cl)c1csc2ccccc12 [Example 116, Trans-4-[(4S)-(4-benzylpiperazin-1-yl)-1-[[4-[(benzo[b]thiophen-3-ylcarbonyl)amino]-5-chloro-2-fluorophenyl]acetyl]-(2S)-pyrrolidinylmethoxy]cyclohexanecarboxylic acid]
4.5 nM	12 nM	Cn1cc(C(=O)Nc2cc(Cl)c(CC(=O)N3C[C@@H](N4CCN(CCF)CC4)C[C@H]3CO[C@H]3CC[C@H](C(=O)O)CC3)cc2Cl)c2ccccc21 [Example 117, Trans-4-[1-[[2,5-dichloro-4-[(1-methyl-1H-indol-3-ylcarbonyl)amino]phenyl]acetyl]-(4S)-[4-(2-fluoroethyl)piperazin-1-yl]-(2S)-pyrrolidinylmethoxy]cyclohexanecarboxylic acid]
4.5 nM	20 nM	Cn1cc(C(=O)Nc2cc(Cl)c(CC(=O)N3C[C@@H](N4CCN(C(C)(C)CF)CC4)C[C@H]3CO[C@H]3CC[C@H](C(=O)O)CC3)cc2Cl)c2ccccc21 [Example 119, Trans-4-[1-[[2,5-dichloro-4-[(1-methyl-1H-indol-3-ylcarbonyl)amino]phenyl]acetyl]-(4S)-[4-(1,1-dimethyl-2-fluoroethyl)piperazin-1-yl]-(2S)-pyrrolidinylmethoxy]cyclohexanecarboxylic acid]
3.8 nM	16 nM	Cn1cc(C(=O)Nc2cc(Cl)c(CC(=O)N3C[C@@H](N4CCN(CC(F)F)CC4)C[C@H]3CO[C@H]3CC[C@H](C(=O)O)CC3)cc2Cl)c2ccccc21 [Example 120, Trans-4-[1-[[2,5-dichloro-4-[(1-methyl-1H-indol-3-ylcarbonyl)amino]phenyl]acetyl]-(4S)-[4-(2,2-difluoroethyl)piperazin-1-yl]-(2S)-pyrrolidinylmethoxy]cyclohexanecarboxylic acid]
3.2 nM	11 nM	Cn1cc(C(=O)Nc2cc(F)c(CC(=O)N3C[C@@H](N4CCN(CC(F)F)CC4)C[C@H]3CO[C@H]3CC[C@H](C(=O)O)CC3)cc2Cl)c2ccccc21 [Example 121, Trans-4-[1-[[5-chloro-2-fluoro-4-[(1-methyl-1H-indol-3-ylcarbonyl)amino]phenyl]acetyl]-(4S)-[4-(2,2-difluoroethyl)piperazin-1-yl]-(2S)-pyrrolidinylmethoxy]cyclohexanecarboxylic acid]
8.8 nM	36 nM	Cn1cc(C(=O)Nc2cc(Cl)c(CC(=O)N3C[C@@H](N4CCN(CC(F)(F)F)CC4)C[C@H]3CO[C@H]3CC[C@H](C(=O)O)CC3)cc2Cl)c2ccccc21 [Example 122, Trans-4-[1-[[2,5-dichloro-4-[(1-methyl-1H-indol-3-ylcarbonyl)amino]phenyl]acetyl]-(4S)-[4-(2,2,2-trifluoroethyl)piperazin-1-yl]-(2S)-pyrrolidinylmethoxy]cyclohexanecarboxylic acid]
1.8 nM	10 nM	O=C(Nc1cc(F)c(CC(=O)N2C[C@@H](N3CCN(CC(F)(F)F)CC3)C[C@H]2CO[C@H]2CC[C@H](C(=O)O)CC2)cc1Cl)c1csc2ccccc12 [Example 123, Trans-4-[1-[[4-[(benzo[b]thiophen-3-ylcarbonyl)amino]-5-chloro-2-fluorophenyl]acetyl]-(4S)-[4-(2,2,2-trifluoroethyl)piperazin-1-yl]-(2S)-pyrrolidinylmethoxy]cyclohexanecarboxylic acid]
3.4 nM	26 nM	O=C(Nc1cc(Cl)c(CC(=O)N2C[C@@H](N3CCN(CC(F)(F)F)CC3)C[C@H]2CO[C@H]2CC[C@H](C(=O)O)CC2)cc1Cl)c1coc2ccccc12 [Example 125, Trans-4-[1-[[4-[(benzo[b]furan-3-ylcarbonyl)amino]-2,5-dichlorophenyl]acetyl]-(4S)-[4-(2,2,2-trifluoroethyl)piperazin-1-yl]-(2S)-pyrrolidinylmethoxy]cyclohexanecarboxylic acid]
2.4 nM	13 nM	O=C(Nc1cc(F)c(CC(=O)N2C[C@@H](N3CCN(CC(F)(F)F)CC3)C[C@H]2CO[C@H]2CC[C@H](C(=O)O)CC2)cc1Cl)c1coc2ccccc12 [Example 126, Trans-4-[1-[[4-[(benzo[b]furan-3-ylcarbonyl)amino]-5-chloro-2-fluorophenyl]acetyl]-(4S)-[4-(2,2,2-trifluoroethyl)piperazin-1-yl]-(2S)-pyrrolidinylmethoxy]cyclohexanecarboxylic acid]
3.9 nM	13 nM	Cn1nc(C(=O)Nc2ccc(CC(=O)N3C[C@@H](N4CCN(CC(F)(F)F)CC4)C[C@H]3CO[C@H]3CC[C@H](C(=O)O)CC3)cc2Cl)c2ccccc21 [Example 128, Trans-4-[1-[[3-chloro-4-[(1-methyl-1H-indazol-3-ylcarbonyl)amino]phenyl]acetyl]-(4S)-[4-(2,2,2-trifluoroethyl)piperazin-1-yl]-(2S)-pyrrolidinylmethoxy]cyclohexanecarboxylic acid]
0.93 nM	1.9 nM	O=C(Nc1cc(Cl)c(CC(=O)N2C[C@@H](N3CCN(CC(F)(F)F)CC3)C[C@H]2CO[C@H]2CC[C@H](C(=O)O)CC2)cc1Cl)c1c[nH]c2ccccc12 [Example 129, Trans-4-[1-[[2,5-dichloro-4-[(1H-indol-3-ylcarbonyl)amino]phenyl]acetyl]-(4S)-[4-(2,2,2-trifluoroethyl)piperazin-1-yl]-(2S)-pyrrolidinylmethoxy]cyclohexanecarboxylic acid]
2.7 nM	7.5 nM	Cn1cc(C(=O)Nc2ccc(CC(=O)N3C[C@@H](N4CCN(CC(F)(F)F)CC4)C[C@H]3CO[C@H]3CC[C@H](C(=O)O)CC3)cc2Cl)c2ccccc21 [Example 130, Trans-4-[1-[[3-chloro-4-[(1-methyl-1H-indol-3-ylcarbonyl)amino]phenyl]acetyl]-(4S)-[4-(2,2,2-trifluoroethyl)piperazin-1-yl]-(2S)-pyrrolidinylmethoxy]cyclohexanecarboxylic acid]
1.1 nM	1.8 nM	O=C(Nc1cc(F)c(CC(=O)N2C[C@@H](N3CCN(CC(F)(F)F)CC3)C[C@H]2CO[C@H]2CC[C@H](C(=O)O)CC2)cc1Cl)c1c[nH]c2ccccc12 [Example 131, Trans-4-[1-[[5-chloro-2-fluoro-4-[(1H-indol-3-ylcarbonyl)amino]phenyl]acetyl]-(4S)-[4-(2,2,2-trifluoroethyl)piperazin-1-yl]-(2S)-pyrrolidinylmethoxy]cyclohexanecarboxylic acid]
1.7 nM	4 nM	O=C(Nc1ccc(CC(=O)N2C[C@@H](N3CCN(CC(F)(F)F)CC3)C[C@H]2CO[C@H]2CC[C@H](C(=O)O)CC2)cc1Cl)c1coc2ccccc12 [Example 132, Trans-4-[1-[[4-[(benzo[b]furan-3-ylcarbonyl)amino]-3-chlorophenyl]acetyl]-(4S)-[4-(2,2,2-trifluoroethyl)piperazin-1-yl]-(2S)-pyrrolidinylmethoxy]cyclohexanecarboxylic acid]
